The source of these data is US7868181B2, “Compounds” (AstraZeneca AB, priority 2007, dated 2011).

One assay addresses T1, human VR1 (Homo sapiens, UniProt Q8NER1).
T1 construct: expressed in transfected cells; host or cells: CHO cells
As to the kind of experiment: hVR1 FLIPR screening assay, IC50 determination (capsaicin). The format is cell-based. The conditions noted are these: CHO cells stably expressing hVR1; agonist capsaicin. On the procedure: hVR1FLIPR (Fluorometric Image Plate Reader) Screening Assay
Transfected CHO cells, stably expressing hVR1 (15,000 cells/well) are seeded in 50 μL media in a black clear bottom 384 plate (Greiner) and grown in a humidified incubator (37° C., 2% CO2), 24-30 hours prior to experiment.
Subsequently, the media is removed from the cell plate by inversion and 2 μM Fluo-4 is added using a multidrop (Labsystems). Following the 40 min dye incubation in the dark at 37° C. and 2% CO2, the extracellular dye present is washed away using an EMBLA (Scatron), leaving the cells in 40 μL of assay buffer (1×HBSS, 10 mM D-Glucose, 1 mM CaCl2, 10 mM HEPES, 10×7.5% NaHCO3 and 2.5 mM Probenecid).
FLIPR Assay—IC50 Determination Protocol
For IC50 determinations the fluorescence is read using FLIPR filter 1 (em […]). A cellular baseline recording is taken for 30 seconds, followed by a 20 μL addition of 10, titrated half-log concentrations of the test compound, yielding cellular concentration ranging from 3 μM to 0.1 nM. Data is collected every 2 seconds for a further 5 min prior to the addition of a VR1 agonist solution: either 50 nM solution of capsaicin or MES (2-[N-morpholino] ethanesulfonic acid) buffer (pH 5.2), by the FLIPR pipettor. The FLIPR continues to collect data for a further 4 min. Compounds having antagonistic properties against the hVR1 will inhibit the increase in intracellular calcium in response to the capsaicin addition. This consequently leading to a reduction in fluorescence signal and providing a reduced fluorescence reading, compared with no compound, buffer controls. Data is exported by the FLIPR program as a sum of fluorescence calculated under the curve upon the addition of capsaicin. Maximum inhibition, Hill slope and IC50 data for each compound are generated.

For the next assay, the target named is T2, aldose reductase (Rattus norvegicus, UniProt P07943).
T2 construct: MDS Pharma Services - Taiwan Ltd (contract laboratory that ran the assay)
As to the kind of experiment: comparative aldose reductase activity determination (MDS Pharma Services). The format is biochemical. The conditions noted are these: carried out by MDS Pharma Services. The procedure: A comparative aldose reductase activity determination was carried out by the company MDS Pharma Services—Taiwan Ltd; the results of that study is set forth in Table 1 below.

For assay [1], the system named is FCA-induced heat hyperalgesia. As to the kind of experiment: Freund's Complete Adjuvant (FCA) model, heat plantar test (paw withdrawal latency). The format is in vivo. The following applies: rat, oral.
Assay [2] relates to carrageenan-induced heat hyperalgesia. In words: Carrageenan model, heat plantar test (paw withdrawal latency). The following applies: rat, oral. The format is in vivo. A general note: Carrageenan injected into the paw causes an acute inflammation.
Setting [3] is: tested at Tmax, reversal of heat hyperalgesia.

T1 sequence (Q8NER1 whole entry): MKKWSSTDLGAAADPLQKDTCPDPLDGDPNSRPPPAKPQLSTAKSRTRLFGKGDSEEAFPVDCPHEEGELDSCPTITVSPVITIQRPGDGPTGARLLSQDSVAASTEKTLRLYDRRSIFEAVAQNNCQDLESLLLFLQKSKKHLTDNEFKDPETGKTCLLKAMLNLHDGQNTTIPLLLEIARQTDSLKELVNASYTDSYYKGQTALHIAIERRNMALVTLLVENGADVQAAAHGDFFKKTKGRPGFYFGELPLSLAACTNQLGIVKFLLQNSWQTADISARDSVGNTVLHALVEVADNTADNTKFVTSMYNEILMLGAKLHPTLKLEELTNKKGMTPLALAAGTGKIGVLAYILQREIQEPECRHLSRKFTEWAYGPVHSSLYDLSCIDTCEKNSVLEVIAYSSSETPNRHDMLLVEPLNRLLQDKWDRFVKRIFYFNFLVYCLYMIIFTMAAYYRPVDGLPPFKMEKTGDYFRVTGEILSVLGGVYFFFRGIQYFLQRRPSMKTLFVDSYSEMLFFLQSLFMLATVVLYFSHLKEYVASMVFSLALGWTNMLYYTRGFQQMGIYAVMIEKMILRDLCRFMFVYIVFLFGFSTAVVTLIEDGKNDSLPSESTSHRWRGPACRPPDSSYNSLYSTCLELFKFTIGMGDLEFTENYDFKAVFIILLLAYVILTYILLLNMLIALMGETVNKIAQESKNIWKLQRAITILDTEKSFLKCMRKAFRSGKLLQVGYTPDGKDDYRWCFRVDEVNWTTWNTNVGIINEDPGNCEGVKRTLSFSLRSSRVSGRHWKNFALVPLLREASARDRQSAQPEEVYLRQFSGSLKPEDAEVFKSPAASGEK

Consider `O=C1NC(=O)[C@]2(N1)C(=O)N(C/C=C/c1ccc(Cl)c(Cl)c1)c1ccccc12` (single isomer, unassigned) [Enantiomer 1A], for which the IC50 (in general, the concentration that inhibits the measured activity by half) on human VR1 was 10000 nM; against aldose reductase, 25 nM.

Turning to `O=C1NC(=O)[C@@]2(N1)C(=O)N(C/C=C/c1ccc(Cl)c(Cl)c1)c1ccccc12` (single isomer, unassigned) [Enantiomer 1B], the figures for the IC50 at human VR1 and at aldose reductase were 43 nM and 758 nM, respectively. For the same compound, the figures for the “Extrapolated Emax” value in assay [1] (non-linear regression) and in assay [2] (non-linear regression) were over 100% and 88%, respectively. For the same compound, the 80% effect concentration (EC80) – broadly, the point of the concentration-response curve where the effect stands at 80% – in assay [1] (reversal of heat hyperalgesia) was 100000 nM; in assay [2] (reversal of heat hyperalgesia), 10700 nM. Moreover, the Emax observed in assay [1] (reversal of heat hyperalgesia) turned out to be 100%; in assay [2] (reversal of heat hyperalgesia), 76%. Moreover, the EC50 (commonly the concentration at which the effect is half-maximal) in assay [1] (setting [3]) worked out at 24000 nM; in assay [2] (setting [3]), 4800 nM. Besides, the 50% effective dose (ED50) (commonly the midpoint of the dose-response relation) in assay [1] (setting [3]) is 52.8 µmol/kg; in assay [2] (setting [3]), 10.6 µmol/kg.

For the compound `O=C1NC(=O)[C@]2(N1)C(=O)N(C/C=C/c1ccc(Cl)c(C(F)(F)F)c1)c1ccccc12` (single isomer, unassigned) [Enantiomer 2A], the IC50 worked out at 3850 nM at human VR1 and 33 nM against aldose reductase.

Regarding `O=C1NC(=O)[C@@]2(N1)C(=O)N(C/C=C/c1ccc(Cl)c(C(F)(F)F)c1)c1ccccc12` (single isomer, unassigned) [Enantiomer 2B], the results for the half-maximal inhibitory concentration (IC50) on human VR1 and against aldose reductase were 241 nM and 3300 nM, respectively.

As to `O=C1NC(=O)[C@]2(N1)C(=O)N(CC#Cc1ccc(Cl)c(Cl)c1)c1ccccc12` (single isomer, unassigned) [Enantiomer 3A], the IC50 at human VR1 was 15500 nM; at aldose reductase it was 72.3 nM.

Turning to `O=C1NC(=O)[C@@]2(N1)C(=O)N(CC#Cc1ccc(Cl)c(Cl)c1)c1ccccc12` (single isomer, unassigned) [Enantiomer 3B], the IC50 at human VR1 stood at 881 nM; against aldose reductase, 983 nM.
